≈ marks a conversion by molar mass, not a printed value. Like-named read-outs stand apart in the source and are kept apart here.
Columns and labels:
[1] = system: Fusobacterium varium ATCC 8501; assay: microbe, parasite or virus in culture; conditions: ATCC8501
[2] = system: two anaerobic and one aerobic organisms; assay: Bactericidal potential (in words); format: cell-based
[3] = system: Bacteroides fragilis A20935; assay: microbe, parasite or virus in culture
[4] = system: Bacillus cereus ATCC 10702 A; assay: MIC, serial two-fold agar dilution, aerobic bacteria; format: cell-based; conditions: ATCC10702
[5] = system: Escherichia coli K-12 A9632; assay: as above; conditions: K12A9632
[6] = system: Neisseria gonorrhoeae A20154; assay: as above; format: cell-based; conditions: GC medium (Eiken)
[7] = system: two anaerobic organisms (B. fragilis and C. perfringens); format: cell-based; conditions: broth dilution method
[8] = system: Escherichia coli Juhl A15119; assay: MIC, serial two-fold agar dilution, aerobic bacteria; format: cell-based; conditions: JUHLA15119
[9] = system: Bacteroides fragilis A20932; assay: microbe, parasite or virus in culture
[10] = system: Sarcina lutea PCI-1001; assay: MIC, serial two-fold agar dilution, aerobic bacteria; format: cell-based; conditions: Micrococcus luteus, PCI1001; Nutrient agar (Eiken); read-out: MIC
[11] = system: C. perfringens or S. pyrogenes; format: in vivo, mice; conditions: oral
[12] = system: Staphylococcus aureus 209P; assay: MIC, serial two-fold agar dilution, aerobic bacteria; format: cell-based; conditions: Nutrient agar (Eiken)
[13] = system: Klebsiella pneumoniae A9678; assay: as above; format: cell-based; conditions: Nutrient agar (Eiken), read-out: MIC
[14] = system: Staphylococcus aureus #52-34; assay: as above; format: cell-based
[15] = system: C. perfringens A9635; assay: animal or person; format: in vivo, mice
[16] = Solubility; format: physicochemical
[17] = system: Sphaerophorus necrophorus A15202; assay: microbe, parasite or virus in culture; conditions: Fusobacterium necrophorum
[18] = system: Diplococcus pneumoniae A9585; assay: MIC, serial two-fold agar dilution, aerobic bacteria; format: cell-based; conditions: Streptococcus pneumoniae, GC medium (Eiken)
[19] = system: Peptocuccus prevotii ATCC 9321; assay: microbe, parasite or virus in culture
[20] = system: Acidoaminococcus fermentans ATCC 25085; assay: microbe, parasite or virus in culture
[21] = system: Bacteroides fragilis A20930; assay: microbe, parasite or virus in culture
[22] = system: Peptococcus aerogenes ATCC 14963; assay: microbe, parasite or virus in culture; conditions: Peptoniphilus asaccharolyticus, ATCC14963
[23] = system: aerobic and anaerobic bacteria; assay: Antibacterial activity and spectrum (in words); format: cell-based
[24] = system: S. pyogenes A20201; assay: Systemic infection with S. pyogenes in mice; format: in vivo; conditions: just before challenge, determined after 5 days
[25] = system: Proteus morganii A9553; assay: MIC, serial two-fold agar dilution, aerobic bacteria; format: cell-based; conditions: Morganella morganii, Nutrient agar (Eiken)
[26] = system: Streptococcus pyogenes A20201; assay: as above; format: cell-based; conditions: GC medium (Eiken)
[27] = system: Proteus mirabilis A9554; assay: as above; format: cell-based; conditions: Nutrient agar (Eiken)
[28] = system: B. fragilis A20928-1; assay: Bactericidal activity (MIC & MBC); format: cell-based; conditions: Bacteroides fragilis, A209281, inoculum size 2.8 × 10^6 cell/ml
[29] = system: C. perfringens A9635; assay: microbe, parasite or virus in culture; format: cell-based, Clostridium perfringens
[30] = system: Sphaerophorus pseudonecrophorus A20013; assay: microbe, parasite or virus in culture; conditions: Fusobacterium necrophorum
[31] = system: B. fragilis A20928-1; assay: Inoculum size effect on MIC, GAM broth; format: cell-based; conditions: Bacteroides fragilis
[32] = pKa' by titration in aqueous ethanol; format: physicochemical; conditions: 50% aqueous ethanol
[33] = system: Pseudomonas aeruginosa A9843; assay: MIC, serial two-fold agar dilution, aerobic bacteria; format: cell-based; conditions: test medium not given
[34] = system: Staphylococcus aereus Smith; assay: as above; format: cell-based
[35] = system: aerobic organisms; assay: Antibacterial activity against aerobic bacteria (in words); format: cell-based; conditions: Bacillus species, streptococci, Neisseria meningtidis, N. gonorrhoeae, Hemophilus influenzae
[36] = system: C. perfringens A9635; assay: microbe, parasite or virus in culture; format: cell-based; conditions: Clostridium perfringens
[37] = system: Serratia marcescens A20019; assay: MIC, serial two-fold agar dilution, aerobic bacteria; format: cell-based; conditions: Nutrient agar (Eiken), read-out: MIC
[38] = system: Micrococcus flavus; assay: as above; format: cell-based
[39] = system: Veillonella parvula ATCC 17745; assay: microbe, parasite or virus in culture; conditions: ATCC17745
[40] = in vivo

COC(=O)C1C(C)OC2(C)CC(=O)C3OC12OC(C(C)/C=C(C)/C=C/C(=O)C1=C(O)CN(C)C1=O)C3C (stereo not drawn) [Bu-2313A]
MIC [1]: 0.1 µg/mL (≈ 0.193 µM)
antibacterial action [2]: bacteriostatic rather than bactericidal
MIC [3]: 0.2 µg/mL (≈ 0.386 µM)
MIC [4]: 0.8 µg/mL (≈ 1.55 µM)
MIC [5]: > 100 µg/mL
MIC [6]: 0.8 µg/mL (≈ 1.55 µM)
influence of inoculum size on MIC [7]: greatly affected by inoculum size
MIC [8]: > 100 µg/mL
MIC [9]: 0.2 µg/mL (≈ 0.386 µM)
MIC [10]: 25 µg/mL (≈ 48.3 µM)
activity by the oral route [11]: inactive by the oral route
MIC [12]: 25 µg/mL (≈ 48.3 µM)
MIC [13]: > 100 µg/mL
MIC [14]: 12.5 µg/mL (≈ 24.2 µM)
ED50 ([15]; Clostridium perfringens, A9635, in Mus musculus, sc, 120 h, read-out: PD50): 6.25 mg/kg
PD50 ([15]; po, just before challenge, determined after 5 days, NA: no activity): NA at 50
solubility ([16]; hexane and alkaline water): slightly soluble
solubility ([16]; most organic solvents such as lower alcohols, ethyl acetate, chloroform and benzene): readily soluble
solubility ([16]; water): practically insoluble
MIC [17]: 0.2 µg/mL (≈ 0.386 µM)
MIC [18]: 0.8 µg/mL (≈ 1.55 µM)
MIC [19]: 0.2 µg/mL (≈ 0.386 µM)
MIC [20]: 0.2 µg/mL (≈ 0.386 µM)
MIC [21]: 0.2 µg/mL (≈ 0.386 µM)
MIC [22]: 0.2 µg/mL (≈ 0.386 µM)
antibacterial activity [23]: exhibit antibacterial activity against a variety of anaerobic bacteria and some aerobic bacteria
comparative activity and antibacterial spectrum ([23]; in vitro): very similar to those of tirandamycin
ED50 ([24]; Streptococcus pyogenes, A20201, 120 h, sc, read-out: PD50): 7.6 mg/kg
PD50 ([24]; po, NA: no activity): NA at 25
MIC [25]: > 100 µg/mL
MIC [26]: 0.8 µg/mL (≈ 1.55 µM)
MIC [27]: > 100 µg/mL
MIC ([28]; broth): 0.03 µg/mL (≈ 0.058 µM)
MBC ([28]; growth of less than 100 colonies per plate, 18 hours at 37° C.): > 0.8 µg/mL
MIC ([29]; Clostridium perfringens, A9635, read-out: MIC in GAM agar): 0.1 µg/mL (≈ 0.193 µM)
MIC in GAM agar ([29]; inoculum size 7 × 10^6 cell/ml): 0.1 µg/mL (≈ 0.193 µM)
MIC [30]: 0.2 µg/mL (≈ 0.386 µM)
MIC ([31]; A209281, inoculum size […] 10^7 cell/ml, read-out: MIC in GAM broth): 0.8 µg/mL (≈ 1.55 µM)
MIC ([31]; A209281, read-out: MIC in GAM broth, inoculum size […] 10^6 cell/ml): 0.06 µg/mL (≈ 0.116 µM)
pKa [32]: 5.2
MIC [33]: > 100 µg/mL
MIC [34]: 12.5 µg/mL (≈ 24.2 µM)
susceptibility of aerobic strains [35]: susceptible
MIC ([36]; A9635, read-out: MIC in GAM broth, inoculum size […] 10^5 cell/ml): 0.1 µg/mL (≈ 0.193 µM)
MIC ([36]; A9635, read-out: MIC in GAM broth, inoculum size […] 10^6 cell/ml): 100 µg/mL (≈ 193 µM)
MIC [37]: > 100 µg/mL
MIC [38]: 6.3 µg/mL (≈ 12.2 µM)
MIC [39]: 0.2 µg/mL (≈ 0.386 µM)
LD50 ([40]; ip, LD50, ip): 14 mg/kg
LD50 ([40]; po, LD50, po): 90 mg/kg
LD50 ([40]; sc, LD50, sc): 90 mg/kg
